Assay results taken from PubChem BioAssay (NCI).
Values joined by “and” are separate entries in the source; they are usually repeats but may differ in a detail not shown here. Identical values can stand only once.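 Five concentrations, 48 hours, 96-well plates. GI50: concentration for 50% inhibition of growth. TGI: total growth inhibition.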

Assays:
Experiment in all cases: NCI anticancer screen, dose series, 48 h
[1] = test system: MOLT-4 leukemia
[2] = test system: M14 melanoma
[3] = test system: OVCAR-3 ovarian
[4] = test system: PC-3 prostate
[5] = test system: MCF7 breast
[6] = test system: SN12C renal
[7] = test system: HL-60(TB) leukemia
[8] = test system: SW-620 colon
[9] = test system: HOP-92 NSCLC
[10] = test system: DU-145 prostate

| Structure (SMILES) | GI50 [1] | TGI [1] | GI50 [2] | TGI [2] | GI50 [3] | TGI [3] | GI50 [4] | TGI [4] | GI50 [5] | TGI [5] | GI50 [6] | TGI [6] | GI50 [7] | TGI [7] | GI50 [8] | TGI [8] | GI50 [9] | TGI [9] | GI50 [10] | TGI [10] |
| --- | --- | --- | --- | --- | --- | --- | --- | --- | --- | --- | --- | --- | --- | --- | --- | --- | --- | --- | --- | --- |
| Cn1nc(C(F)(F)F)cc1-c1c[nH]c(OCc2ccc(Cl)cc2)c(-c2ccc(Cl)c(C(F)(F)F)c2)c1=O | 1.16 µM | 3.03 µM | 1.27 µM | 4.26 µM | 1.19 µM | 19.5 µM | 0.756 µM | 4.32 µM | 1.22 µM | > 50 µM | 0.755 µM | 6.95 µM | 1.09 µM | 2.55 µM | 1.44 µM | 7.74 µM | 0.224 µM | 1.54 µM | 1.64 µM | > 50 µM |
| CCCCNC(=O)C1C(=O)N(CCCC)C(=O)/C1=N\N (stereo unspecified) |  | > 100 µM |  | > 100 µM |  | > 100 µM |  |  |  |  |  | > 100 µM |  |  |  | > 100 µM |  | > 100 µM |  |  |
| O=c1c2ccccc2nc(/C=C(\O)c2ccncc2)n1-c1ccc(Cl)cc1 |  | > 100 µM |  | > 100 µM |  | > 100 µM |  |  |  |  |  | > 100 µM |  | > 100 µM |  | > 100 µM |  | > 100 µM |  |  |
| O=C(O)COc1ccc(C(=O)/C(SS/C(C(=O)c2ccc(OCC(=O)O)c(Cl)c2Cl)=C2\C=C(c3ccc(Cl)cc3)SS2)=C2/C=C(c3ccc(Cl)cc3)SS2)c(Cl)c1Cl |  | 12.6 µM |  | 26.3 µM |  | 26.6 µM |  |  |  |  |  | 1.79 µM |  | 2.1 µM |  | 11.5 µM |  | 17.9 µM |  |  |
| CCCc1cc(=O)n2c(C(=O)Nc3cccc(C(=O)OCC)c3)c(C(=O)Nc3ccc(F)cc3)sc2n1 | > 140 µM | > 140 µM | 9.6 µM | 86 µM | 3.17 µM | 7.75 µM | 45.9 µM | > 140 µM | > 140 µM | > 140 µM |  |  | > 140 µM | > 140 µM | 12 µM | > 140 µM | 1.33 µM | 7.99 µM | 58.8 µM | > 140 µM |
| COc1ccc(Cn2cc3c(c2-c2ccccc2)CCc2cnoc2-3)cc1OC | 1.05 µM | > 100 µM | 0.566 µM | > 100 µM | 0.332 µM | 0.884 µM | 3.08 µM | > 100 µM | 0.574 µM | > 100 µM | 5.16 µM | > 100 µM | 0.299 µM | 1.69 µM | 0.455 µM | > 100 µM | 1.98 µM | > 100 µM |  |  |
| O=C(c1ccccc1)C(c1ccccc1)C1(O)C(=O)Nc2ccc([N+](=O)[O-])cc21 (stereo unspecified) |  | > 100 µM |  | > 100 µM |  |  |  |  |  |  |  | > 100 µM |  | > 100 µM |  | > 100 µM |  | > 100 µM |  |  |
| O=C1[C@@H]2C(c3ccccc3[N+](=O)[O-])=[N+](c3ccccc3)O[C@@H]2C(=O)N1c1ccc(Cc2ccc(N3C(=O)[C@H]4C(c5ccccc5[N+](=O)[O-])=[N+](c5ccccc5)O[C@H]4C3=O)cc2)cc1 |  | > 100 µM |  | 49.9 µM |  | > 100 µM |  |  |  |  |  | > 100 µM |  | > 100 µM |  | > 100 µM |  | > 100 µM |  |  |
| COc1cccc(/C=N/NC(=O)c2ccccc2N2CCCC2)c1O | 1.52 µM | > 100 µM | 3.08 µM | 24.2 µM | 3.3 µM | > 100 µM | 6.48 µM | > 100 µM |  |  | 15.5 µM | > 100 µM |  |  | 4.08 µM | > 100 µM | 4.67 µM | > 100 µM | 8.96 µM | > 100 µM |
| CCOC(=O)NC/C=C/COC1CCCCO1 (stereo unspecified) |  | > 100 µM |  | > 100 µM |  |  |  |  |  |  |  | > 100 µM |  | > 100 µM |  | > 100 µM |  |  |  |  |
| Nc1nc(Cl)cc(NCC(O)CO)n1 (stereo unspecified) |  | > 100 µM |  | > 100 µM |  | > 100 µM |  |  |  |  |  | > 100 µM |  | > 100 µM |  | > 100 µM |  | > 100 µM |  |  |
| O=C(OC1CCC2OOC1O2)c1ccc([N+](=O)[O-])cc1 (stereo unspecified) |  | > 100 µM |  | > 100 µM |  | > 100 µM |  |  |  |  |  | > 100 µM |  | > 100 µM |  | > 100 µM |  |  |  |  |
| [Cl][Hg][c]1ccc(Cl)s1 | 1.64 µM | 6.68 µM | 1.55 µM | 3.17 µM |  |  | 5.62 µM | 16.2 µM |  |  | 2.95 µM | 8.19 µM | 2.1 µM | 6.29 µM | 1.04 µM | 2.59 µM | 1.67 µM | 3.11 µM | 4.56 µM | 17.6 µM |
| CCC(O)C1Cc2c(C)cc3c(c2O1)C(=O)c1ccccc1C3=O (stereo unspecified) |  | > 100 µM |  | > 100 µM |  | > 100 µM |  |  |  |  |  | > 100 µM |  | 51.7 µM |  | > 100 µM |  | 97.1 µM |  |  |
| COc1cc2c(c(OC)c1OC)-c1ccc(OC)c(=O)cc1[C@@H](NC(C)=O)CC2 | < 0.01 µM and 0.0352 µM and 0.0625 µM |  |  | > 100 µM and 32 µM |  |  |  | > 100 µM | < 0.01 µM and 0.00342 µM and < 0.0114 µM |  |  | > 100 µM and > 93.4 µM and 131 µM |  |  |  | > 394 µM |  |  |  | 0.0538 µM |
| CCOC(=O)C(N=C(c1ccccc1)c1ccccc1)N(C(=O)OC(C)(C)C)C(=O)OC(C)(C)C (stereo unspecified) |  | > 100 µM |  |  |  | > 100 µM |  |  |  |  |  | > 100 µM |  |  |  | > 100 µM |  | 66.6 µM |  |  |
| Cc1cc(Nc2ncc3c(n2)N(C)C(=O)N(c2cc(NC(=O)c4cccc(C(F)(F)F)c4)ccc2C)C3)n(C)n1 | 0.135 µM | > 46.4 µM | < 0.01 µM | 0.096 µM |  |  | 0.105 µM | > 31.6 µM | 0.624 µM | > 46.4 µM | 0.0167 µM | > 100 µM | 0.0365 µM |  | 0.0539 µM | > 46.4 µM |  |  |  |  |
| CCOC(=O)Cc1csc(Nc2ccc(OCC)cc2)n1 |  | > 100 µM |  |  |  | > 100 µM |  |  |  |  |  | > 100 µM |  | > 100 µM |  | > 100 µM |  | > 100 µM |  |  |
| O=C(NCc1cccnc1)C1COc2cc(-c3cc(=O)c4ccccc4o3)ccc2O1 (stereo unspecified) |  | > 100 µM |  | > 100 µM |  | > 100 µM |  |  |  |  |  | > 78 µM |  | > 46.4 µM |  | > 100 µM |  | > 100 µM |  |  |
| CCCCC(C(=O)CCC(=O)Nc1ccc(Cl)c(Cl)c1)C(=O)C(C)C (stereo unspecified) |  | > 100 µM |  | > 100 µM |  | > 100 µM |  |  |  |  |  | > 100 µM |  | > 100 µM |  | > 100 µM |  | > 100 µM |  |  |
